Test results from ChEMBL document CHEMBL1201862, “PubChem BioAssay data set” (2004).
Calls of active or inactive are those of the source.

Columns and labels:
[1] = target: Histone-lysine N-methyltransferase NSD2 (Homo sapiens, UniProt O96028); type: biochemical
[2] = Counterscreen for […] of the human trace amine associated receptor 1 (TAAR1): Fluorescence-based cell-based high throughput dose response assay to identify nonselective Ga16 agonists.; type: functional
[3] = target: T1, Trace amine-associated receptor 1 (Homo sapiens, UniProt Q96RJ0); experiment: Fluorescence-based cell-based high throughput dose response assay to identify antagonists of the human trace amine associated receptor 1 (TAAR1).; type: functional
T1 sequence (Q96RJ0 whole entry): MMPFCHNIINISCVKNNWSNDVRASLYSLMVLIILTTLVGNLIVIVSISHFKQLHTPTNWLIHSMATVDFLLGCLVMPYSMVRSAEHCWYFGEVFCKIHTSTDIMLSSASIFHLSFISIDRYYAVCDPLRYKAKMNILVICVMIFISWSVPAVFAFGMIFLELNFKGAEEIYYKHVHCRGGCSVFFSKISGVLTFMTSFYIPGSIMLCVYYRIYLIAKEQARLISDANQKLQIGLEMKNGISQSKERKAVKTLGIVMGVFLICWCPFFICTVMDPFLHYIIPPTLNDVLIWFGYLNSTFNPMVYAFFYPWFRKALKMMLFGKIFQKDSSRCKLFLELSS

[4] = Counterscreen for antagonists of the human trace amine associated receptor 1 (hTAAR1): Fluorescence-based cell-based high throughput dose response assay to identify nonselective Ga16 antagonists.; type: functional
[5] = target: T1, Trace amine-associated receptor 1; experiment: Counterscreen for antagonists of the human trace amine associated receptor 1 (hTAAR1): Fluorescence-based cell-based high throughput dose response assay to identify TAAR1 Agonists.; type: functional
[6] = target: Beta-lactamase (Salmonella choleraesuis (strain SC-B67), UniProt Q5J463); experiment: Epi-absorbance-based counterscreen for selective VIM-2 inhibitors: dose response biochemical high throughput screening assay to identify inhibitors of TEM-1 serine-beta-lactamase.
Sequence of Beta-lactamase (Salmonella choleraesuis (strain SC-B67), UniProt Q5J463) (Q5J463 whole entry): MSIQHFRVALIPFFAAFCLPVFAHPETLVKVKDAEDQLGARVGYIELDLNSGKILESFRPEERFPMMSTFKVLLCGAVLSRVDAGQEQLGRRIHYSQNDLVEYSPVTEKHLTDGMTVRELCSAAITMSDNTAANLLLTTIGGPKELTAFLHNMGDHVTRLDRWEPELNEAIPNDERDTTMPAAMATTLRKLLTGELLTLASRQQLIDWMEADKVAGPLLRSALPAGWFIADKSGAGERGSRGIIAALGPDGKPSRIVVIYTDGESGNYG

[7] = target: T2, Beta-lactamase (Pseudomonas aeruginosa, UniProt Q79MP6); experiment: inhibition of IMP-1 beta-lactamase activity – biochemical, epi-absorbance, selectivity assay for VIM-2 inhibitor project, dose response (AID 1920)
T2 sequence (Q79MP6 whole entry): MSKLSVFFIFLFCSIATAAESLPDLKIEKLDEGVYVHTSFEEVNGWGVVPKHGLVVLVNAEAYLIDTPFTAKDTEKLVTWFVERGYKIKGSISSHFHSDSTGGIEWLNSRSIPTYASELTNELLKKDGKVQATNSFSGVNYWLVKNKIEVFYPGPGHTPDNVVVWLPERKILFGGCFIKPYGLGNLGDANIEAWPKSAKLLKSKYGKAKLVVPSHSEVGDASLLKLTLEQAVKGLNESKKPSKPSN

[8] = target: T2, Beta-lactamase; experiment: […] counterscreen for selective VIM-2 inhibitors: dose response biochemical high throughput screening assay to identify inhibitors of IMP-1 metallo-beta-lactamase.
[9] = test system: Vero; experiment: viability loss in Vero cells – cell-based, plate reader, cherry-pick samples, cytotoxicity control, dose response (AID 687020); type: functional; conditions: Chlorocebus sabaeus
[10] = test system: A549; experiment: viability loss in A549 cells – cell-based, plate reader, cherry-pick samples, cytotoxicity control, dose response (AID 687028); type: functional; conditions: Homo sapiens
[11] = target: T3, Matrix metalloproteinase-14 (Homo sapiens, UniProt P50281); experiment: SAR confirmation of uHTS hits for a small molecule inhibitors of MT1-MMP activation in a fluorescence assay.; type: functional
[12] = target: T3, Matrix metalloproteinase-14; experiment: Dose Response confirmation of uHTS hits for a small molecule inhibitors of MT1-MMP activation in a fluorescence assay set 2.; type: functional
[13] = target: 26S proteasome non-ATPase regulatory subunit 14 (Homo sapiens, UniProt O00487); experiment: inhibition of proteasome subunit RPN11 – biochemical, fluorescence polarization, uHTS hits, confirmation (AID 602368); type: functional
Sequence of 26S proteasome non-ATPase regulatory subunit 14 (O00487 whole entry): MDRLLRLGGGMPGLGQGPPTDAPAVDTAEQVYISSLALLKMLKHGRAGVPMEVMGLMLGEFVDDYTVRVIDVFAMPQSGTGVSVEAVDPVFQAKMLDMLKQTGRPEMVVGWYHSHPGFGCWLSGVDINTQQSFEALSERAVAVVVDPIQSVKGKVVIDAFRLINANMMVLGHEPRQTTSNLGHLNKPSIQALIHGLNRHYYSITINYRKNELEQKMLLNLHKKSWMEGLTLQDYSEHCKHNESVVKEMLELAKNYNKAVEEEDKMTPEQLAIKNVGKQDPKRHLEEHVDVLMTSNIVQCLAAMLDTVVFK

[14] = target: 72 kDa type IV collagenase (Homo sapiens, UniProt P08253); experiment: Dose Response validation of uHTS RPN11 inhibitor hits using a MMP-2 Fluorescence assay.; type: functional
Sequence of 72 kDa type IV collagenase (P08253 whole entry): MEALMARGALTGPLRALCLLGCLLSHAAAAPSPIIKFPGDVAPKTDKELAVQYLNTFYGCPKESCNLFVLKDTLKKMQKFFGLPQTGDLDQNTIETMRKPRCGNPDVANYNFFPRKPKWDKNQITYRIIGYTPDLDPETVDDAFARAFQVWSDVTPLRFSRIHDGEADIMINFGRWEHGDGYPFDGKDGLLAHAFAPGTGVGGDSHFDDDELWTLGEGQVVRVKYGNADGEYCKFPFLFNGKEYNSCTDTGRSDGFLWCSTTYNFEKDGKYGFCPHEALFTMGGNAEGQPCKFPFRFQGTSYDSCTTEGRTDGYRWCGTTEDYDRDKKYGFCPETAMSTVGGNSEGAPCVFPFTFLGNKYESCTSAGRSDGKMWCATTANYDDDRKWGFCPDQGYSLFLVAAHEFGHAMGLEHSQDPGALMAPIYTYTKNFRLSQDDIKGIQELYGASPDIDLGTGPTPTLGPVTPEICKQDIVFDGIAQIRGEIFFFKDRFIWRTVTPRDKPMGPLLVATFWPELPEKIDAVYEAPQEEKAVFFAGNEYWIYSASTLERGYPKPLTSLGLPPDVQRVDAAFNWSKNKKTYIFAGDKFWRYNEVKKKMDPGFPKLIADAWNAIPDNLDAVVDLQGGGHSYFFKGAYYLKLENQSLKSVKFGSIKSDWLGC

[15] = target: Prothrombin (Bos taurus, UniProt P00735); experiment: thrombin protease inhibitors – biochemical, fluorescence polarization, uHTS hits, dose response (AID 602369); type: functional
[16] = target: Arf-GAP with SH3 domain, ANK repeat and PH domain-containing protein 1 (Homo sapiens, UniProt Q9ULH1); type: functional;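 note: biochemical fluorescence polarization dose–response screen measuring inhibition of ASAP1; ASAP1 GAP domain stimulating GTP hydrolysis by truncated human ARF1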
Sequence of Arf-GAP with SH3 domain, ANK repeat and PH domain-containing protein 1 (Q9ULH1 whole entry, the tested form may be a part): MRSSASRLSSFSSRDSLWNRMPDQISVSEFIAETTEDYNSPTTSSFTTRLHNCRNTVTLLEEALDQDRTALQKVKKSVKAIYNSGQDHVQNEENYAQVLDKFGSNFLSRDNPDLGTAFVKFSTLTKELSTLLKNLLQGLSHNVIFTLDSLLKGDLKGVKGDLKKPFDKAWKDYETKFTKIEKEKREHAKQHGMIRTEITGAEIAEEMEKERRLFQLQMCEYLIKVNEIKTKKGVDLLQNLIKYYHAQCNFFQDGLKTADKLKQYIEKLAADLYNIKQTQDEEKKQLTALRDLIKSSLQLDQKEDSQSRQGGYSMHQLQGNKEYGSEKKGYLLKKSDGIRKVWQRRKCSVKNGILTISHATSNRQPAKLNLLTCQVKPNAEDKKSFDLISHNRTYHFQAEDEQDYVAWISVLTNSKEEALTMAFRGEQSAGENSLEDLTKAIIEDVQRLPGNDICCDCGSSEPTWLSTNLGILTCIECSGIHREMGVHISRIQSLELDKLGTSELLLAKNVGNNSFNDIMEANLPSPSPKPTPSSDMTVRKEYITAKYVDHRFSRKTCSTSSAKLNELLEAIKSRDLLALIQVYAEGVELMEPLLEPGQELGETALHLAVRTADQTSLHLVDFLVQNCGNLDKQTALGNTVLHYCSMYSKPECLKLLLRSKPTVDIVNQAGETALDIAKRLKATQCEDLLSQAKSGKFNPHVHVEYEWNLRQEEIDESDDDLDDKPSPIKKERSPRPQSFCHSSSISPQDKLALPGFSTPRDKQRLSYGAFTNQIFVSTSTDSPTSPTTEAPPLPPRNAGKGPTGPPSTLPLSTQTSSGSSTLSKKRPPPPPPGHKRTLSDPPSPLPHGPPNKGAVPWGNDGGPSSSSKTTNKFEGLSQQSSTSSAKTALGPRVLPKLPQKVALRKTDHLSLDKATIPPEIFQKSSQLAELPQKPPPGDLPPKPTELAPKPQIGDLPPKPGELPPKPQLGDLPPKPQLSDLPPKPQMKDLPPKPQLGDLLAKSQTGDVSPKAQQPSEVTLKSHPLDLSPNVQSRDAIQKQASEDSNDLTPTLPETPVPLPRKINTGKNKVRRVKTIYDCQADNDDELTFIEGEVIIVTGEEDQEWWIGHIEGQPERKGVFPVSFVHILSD

[17] = target: Long-chain-fatty-acid--AMP ligase FadD28 (Mycobacterium tuberculosis, UniProt P9WQ59); experiment: Fluorescence polarization aasay to screen for inhibitors that compete for the binding of FadD28 to a bisubstrate Measured in Biochemical System Using Plate Reader - 2147-01_Inhibitor_Dose_CherryPick_Activity.; type: functional, Mycobacterium tuberculosis H37Rv
Sequence of Long-chain-fatty-acid--AMP ligase FadD28 (P9WQ59 whole entry): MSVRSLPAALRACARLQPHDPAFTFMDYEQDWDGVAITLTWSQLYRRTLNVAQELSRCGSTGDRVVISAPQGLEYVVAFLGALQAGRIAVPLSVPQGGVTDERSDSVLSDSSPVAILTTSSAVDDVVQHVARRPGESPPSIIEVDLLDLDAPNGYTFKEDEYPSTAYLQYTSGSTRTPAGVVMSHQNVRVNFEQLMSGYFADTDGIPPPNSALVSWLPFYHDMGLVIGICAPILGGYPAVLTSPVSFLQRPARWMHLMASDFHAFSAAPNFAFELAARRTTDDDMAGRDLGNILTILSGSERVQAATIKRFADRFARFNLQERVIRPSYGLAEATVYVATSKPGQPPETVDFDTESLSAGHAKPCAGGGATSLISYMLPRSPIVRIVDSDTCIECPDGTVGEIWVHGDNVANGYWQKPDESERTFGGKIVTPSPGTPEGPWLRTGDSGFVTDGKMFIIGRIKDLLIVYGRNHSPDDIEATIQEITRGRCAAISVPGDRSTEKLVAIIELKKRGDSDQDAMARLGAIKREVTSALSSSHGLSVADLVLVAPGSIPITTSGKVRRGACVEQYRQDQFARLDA

[18] = general mammalian cell viability loss – inhibitor set, cherry-pick, set 2, cytotoxicity control for miR-122 modulator project, dose response (AID 720697); type: functional, cell-based
[19] = target: Beta-galactosidase (Escherichia coli, UniProt Q8VNN2); experiment: Dose response counterscreen for EBI2 assay utilizing the enzyme, b-galactosidase.; type: functional
[20] = target: Paired box protein Pax-8 (Homo sapiens, UniProt Q06710); experiment: PAX8 transcriptional activity inhibition in RMG-I – RMG-I cells, luciferase, cherry-pick, dose response (AID 687027); type: functional, cell-based;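 note: luciferase reporter driven by Pax8 target thyroperoxidase promoter measured by SteadyGlo luminescence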
Sequence of Paired box protein Pax-8 (Q06710 whole entry): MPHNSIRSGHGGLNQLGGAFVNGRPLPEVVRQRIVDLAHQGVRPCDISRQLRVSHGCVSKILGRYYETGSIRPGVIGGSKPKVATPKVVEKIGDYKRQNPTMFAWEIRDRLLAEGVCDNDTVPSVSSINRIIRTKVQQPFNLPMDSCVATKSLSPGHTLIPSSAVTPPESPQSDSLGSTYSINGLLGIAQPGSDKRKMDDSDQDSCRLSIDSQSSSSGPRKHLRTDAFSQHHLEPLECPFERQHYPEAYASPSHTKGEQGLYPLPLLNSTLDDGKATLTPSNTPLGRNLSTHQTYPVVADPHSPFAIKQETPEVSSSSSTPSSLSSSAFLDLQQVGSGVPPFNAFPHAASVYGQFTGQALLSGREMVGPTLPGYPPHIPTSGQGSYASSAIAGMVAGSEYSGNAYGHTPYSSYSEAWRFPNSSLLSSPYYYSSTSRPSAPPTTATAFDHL

[21] = CMV-driven luciferase expression suppression in HEK293 – cell-based, luminescence, dry powder, counter-screen for Pax8 inhibitor project, dose response (AID 743020); type: functional
[22] = OVCAR-3 cell viability loss – plate reader, dry powder samples, PAX8 inhibitor project, dose response (AID 743044); type: functional, cell-based
[23] = OVCAR8 cell viability loss – plate reader, dry powder samples, PAX8 project, dose response (AID 743197); type: functional, cell-based; conditions: OVCAR-8
[24] = A549 cell cytotoxicity, dose response, cytotoxicity control, plate reader, cherry-pick, antagonist series (AID 743412); type: functional, cell-based
[25] = inhibition of bursicon-driven LGR2 cAMP signaling – cell-based, HEK293, CRE-luciferase reporter, cherry pick, dose response (AID 743342); type: functional
[26] = T. cruzi growth inhibition in host cells, dose response, cell-based, plate reader, dry powder, set 2 (AID 652275); type: functional

Sequence of Histone-lysine N-methyltransferase NSD2 (O96028 whole entry): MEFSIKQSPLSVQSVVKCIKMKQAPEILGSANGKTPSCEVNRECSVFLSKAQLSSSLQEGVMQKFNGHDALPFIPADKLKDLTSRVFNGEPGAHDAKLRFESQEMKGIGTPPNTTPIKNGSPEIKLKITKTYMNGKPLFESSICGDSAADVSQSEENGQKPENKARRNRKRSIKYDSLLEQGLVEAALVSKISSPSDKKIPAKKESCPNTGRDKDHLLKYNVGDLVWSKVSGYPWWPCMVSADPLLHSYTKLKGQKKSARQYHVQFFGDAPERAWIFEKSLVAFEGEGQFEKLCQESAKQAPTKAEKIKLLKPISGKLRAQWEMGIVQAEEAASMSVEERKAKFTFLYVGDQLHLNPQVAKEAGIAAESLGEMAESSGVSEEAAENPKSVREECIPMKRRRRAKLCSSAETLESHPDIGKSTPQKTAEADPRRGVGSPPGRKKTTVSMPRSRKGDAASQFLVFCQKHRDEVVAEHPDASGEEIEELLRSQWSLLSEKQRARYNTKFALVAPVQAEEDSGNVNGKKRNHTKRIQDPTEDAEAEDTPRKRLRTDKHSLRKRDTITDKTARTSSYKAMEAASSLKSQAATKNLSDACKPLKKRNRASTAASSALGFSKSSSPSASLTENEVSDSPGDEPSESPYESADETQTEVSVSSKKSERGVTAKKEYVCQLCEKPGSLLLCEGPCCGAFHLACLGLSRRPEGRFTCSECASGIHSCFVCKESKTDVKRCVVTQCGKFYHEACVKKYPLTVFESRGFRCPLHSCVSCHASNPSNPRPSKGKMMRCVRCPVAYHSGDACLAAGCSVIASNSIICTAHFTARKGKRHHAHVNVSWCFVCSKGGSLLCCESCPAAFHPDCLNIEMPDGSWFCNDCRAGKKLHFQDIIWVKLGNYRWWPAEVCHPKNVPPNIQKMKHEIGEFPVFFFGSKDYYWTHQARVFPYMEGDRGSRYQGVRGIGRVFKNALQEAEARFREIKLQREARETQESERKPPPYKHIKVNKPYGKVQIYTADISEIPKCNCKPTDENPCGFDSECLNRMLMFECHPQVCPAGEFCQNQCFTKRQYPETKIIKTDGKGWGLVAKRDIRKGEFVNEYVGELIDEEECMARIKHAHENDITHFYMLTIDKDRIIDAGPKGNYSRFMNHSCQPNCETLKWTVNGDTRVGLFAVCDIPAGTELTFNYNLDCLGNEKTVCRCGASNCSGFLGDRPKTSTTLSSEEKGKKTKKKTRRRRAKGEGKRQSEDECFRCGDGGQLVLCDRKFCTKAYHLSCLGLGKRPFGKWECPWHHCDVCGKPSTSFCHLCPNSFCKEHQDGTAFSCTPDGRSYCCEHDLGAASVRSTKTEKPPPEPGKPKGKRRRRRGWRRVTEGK

For `CCN=C(S)N(CCCN(CC)CC)Cc1cc2cc3c(cc2nc1O)OCO3`, the AC50 [1] was 15.7 µM (active).
For `O=C(CCSCc1cccc(F)c1)NCCc1ccccc1`, the EC50 [2] was > 29.9 µM (inactive), the IC50 [3] was 7.43 µM (active) and the IC50 [4] was > 29.9 µM (inactive). For the same compound, the EC50 [5] was > 29.9 µM (inactive).
For `Fc1ccccc1-c1nnc(S)n1Cc1ccccc1`, the IC50 [6] was > 59.6 µM (inactive), the IC50 [7] was > 59.6 µM (inactive) and the IC50 [8] was > 59.6 µM (inactive).
With `Cc1cccc(C(=O)N2CCC(=O)N([C@H](COCc3ccc(Cl)cc3)Cc3ccccc3)CC2)c1` the AC50 [9] was 33.6 µM (active) and the AC50 [10] was 28.5 µM (active).
For `CN1/C(=C\C(=O)c2cncc(Br)c2)C(C)(C)c2ccccc21`, the IC50 [11] was 66.5 µM (inactive) and the IC50 [12] was 23.7 µM (inactive).
In the case of `N#Cc1ccc(-c2ccc(OCC(=O)NCC(=O)Nc3ccc(F)c(F)c3F)cc2)cc1`, the IC50 [13] is reported as 12.7 µM (active), the IC50 [14] is reported as > 100 µM (inactive) and the IC50 [15] is reported as > 100 µM (inactive). For the same compound, the IC50 [16] was 26.1 µM (inactive).
For `COc1cccc(-n2nnnc2SCC(=O)Nc2cccc(C)n2)c1`, the AC50 [17] was 50.1 µM (active).
For `CC1CCN(CCc2nc3cc(NC(=O)Nc4ccccc4)ccc3n2C)CC1`, the AC50 [18] was 2.74 µM (active).
In the case of `CCOC(=O)C1CCN(C2=NC(=O)/C(=C/c3ccc(Cl)cc3)S2)CC1`, the IC50 [19] is reported as > 80 µM (inactive).
In the case of `C[C@H]1CN([C@@H](C)CO)S(=O)(=O)c2ccc(C#CC3CCCC3)cc2O[C@@H]1CN(C)Cc1cccnc1`, the AC50 [20] is reported as 14.4 µM (active), the AC50 [21] is reported as 39.4 µM (active) and the AC50 [22] is reported as 37.1 µM (active). For the same compound, the AC50 [23] was > 70 µM (inactive).
With `C[C@H](CO)N1C[C@H](C)[C@H](CN(C)C(=O)Nc2ccc3c(c2)OCO3)OCCCC[C@H](C)Oc2ccc(NC(=O)C3CCCCC3)cc2C1=O` the AC50 [24] was 41 µM (active) and the AC50 [25] was 2.21 µM (active).
For `C[C@@H](CO)N1CC[C@H](CNCc2ccc(Oc3ccccc3)cc2)Oc2c(NC(=O)c3ccncc3)cccc2C1=O`, the AC50 [26] was 0.0179 µM (active).
